Laboratory results published in patent publication US6545031B1, “Endothelin receptor antagonists” (SmithKline Beecham Corporation, priority 1995, dated 2003).

| SMILES | melting point [°C] |
| --- | --- |
| CCCCn1ncc(/C=C(\Cc2cc3c(cc2OC)OCO3)C(=O)O)c1-c1ccc(OC)cc1OCc1ccccc1C(=O)O [Example 1, (E)-alpha-[[1-n-Butyl-5-[2-[(2-carboxyphenyl)methoxy]-4-methoxyphenyl]-1H-pyrazol-4-yl]methylene]-6-methoxy-1,3-benzodioxole-5-propanoic Acid] | 213 to 214 |
| CCCCn1cc(/C=C(\Cc2cc3c(cc2OC)OCO3)C(=O)O)c(-c2ccc(OC)cc2OCc2ccccc2C(=O)O)n1 [Example 2, (E)-alpha-[[1-n-Butyl-3-[2-[(2-carboxyphenyl)methoxy]-4-methoxyphenyl]-1H-pyrazol-4-yl]methylene]-6-methoxy-1,3-benzodioxole-5-propanoic Acid] | 226 to 227 |
